One assay deals with DPP-IV.
Experiment: not given
The note with it: cited from earlier work.
With `O=c1cc(-c2ccc(O)cc2)oc2cc(O)cc(O)c12` [apigenin], the “mode of DPP-IV inhibition” value is listed as “noncompetitive”.
As to `O.Oc1cc(O)c2c(c1)O[C@H](c1ccc(O)c(O)c1)[C@@H](O)C2` [catechin], the “activity against DPP-IV (in words)” value is “totally inactive”.
As for `O=C(/C=C/c1ccc(O)c(O)c1)O[C@@H]1C[C@](O)(C(=O)O)C[C@@H](O)[C@H]1O` [chlorogenic acid], the “activity against DPP-IV (in words)” value was “totally inactive”.
`COc1cc(/C=C/C(=O)CC(=O)/C=C/c2ccc(O)c(OC)c2)ccc1O` [curcumin]: the “activity against DPP-IV (in words)” value is “more active than resveratrol” and the “mode of DPP-IV inhibition” value is reported as “competitive”.
Take `Oc1cc(O)c2c(c1)O[C@H](c1ccc(O)c(O)c1)[C@H](O)C2` [epicatechin]: the “activity against DPP-IV (in words)” value is “totally inactive”.
For `O=c1c(-c2ccc(O)cc2)coc2cc(O[C@@H]3O[C@H](CO)[C@@H](O)[C@H](O)[C@H]3O)cc(O)c12` [genistin], the “activity against DPP-IV (in words)” value is “totally inactive”.
For `COc1ccc([C@@H]2CC(=O)c3c(O)cc(O[C@@H]4O[C@H](CO[C@@H]5O[C@@H](C)[C@H](O)[C@@H](O)[C@H]5O)[C@@H](O)[C@H](O)[C@H]4O)cc3O2)cc1O` [hesperidin], the “activity against DPP-IV (in words)” value was “totally inactive”.
`CC1(C)O[C@H]2CC(=O)OC[C@]23[C@H]2CC[C@@]4(C)[C@H](c5ccoc5)OC(=O)[C@H]5O[C@]54[C@]2(C)C(=O)C[C@@H]13` [limonin]: the “activity against DPP-IV (in words)” value was “totally inactive”.
With `O=c1cc(-c2ccc(O)c(O)c2)oc2cc(O)cc(O)c12` [luteolin], the “mode of DPP-IV inhibition” value is reported as “noncompetitive”.
Regarding `C[C@@H]1O[C@@H](O[C@H]2[C@H](Oc3cc(O)c4c(c3)O[C@H](c3ccc(O)cc3)CC4=O)O[C@H](CO)[C@@H](O)[C@@H]2O)[C@H](O)[C@H](O)[C@H]1O` [naringin], the “activity against DPP-IV (in words)” value is “totally inactive”.
Regarding `C[C@@H]1O[C@@H](OC[C@H]2O[C@@H](Oc3cc(O)c4c(c3)O[C@H](c3ccc(O)cc3)CC4=O)[C@H](O)[C@@H](O)[C@@H]2O)[C@H](O)[C@H](O)[C@H]1O` [narirutin], the “activity against DPP-IV (in words)” value was “totally inactive”.
For the compound `COc1ccc([C@@H]2CC(=O)c3c(O)cc(O[C@@H]4O[C@H](CO)[C@@H](O)[C@H](O)[C@H]4O[C@@H]4O[C@@H](C)[C@H](O)[C@@H](O)[C@H]4O)cc3O2)cc1O` [neohesperidin], the “activity against DPP-IV (in words)” value is “totally inactive”.
As for `O=C(O)c1ccc(O)c(O)c1` [protocatechuic acid], the “activity against DPP-IV (in words)” value is “totally inactive”.
As for `Oc1ccc(/C=C/c2cc(O)cc(O)c2)cc1` [resveratrol], the “mode of DPP-IV inhibition” value is recorded as “competitive”.
With `C[C@@H]1O[C@@H](OC[C@H]2O[C@@H](Oc3c(-c4ccc(O)c(O)c4)oc4cc(O)cc(O)c4c3=O)[C@H](O)[C@@H](O)[C@@H]2O)[C@H](O)[C@H](O)[C@H]1O` [rutin], the “activity against DPP-IV (in words)” value is “totally inactive”.

The assay is the same for the next values; noted with them: read-out: IC50, in vitro DPP-IV activity; cited from earlier work.
Consider `C[C@@H]1O[C@@H](OC[C@H]2O[C@@H](Oc3cc(O)c4c(c3)O[C@H](c3ccc(O)c(O)c3)CC4=O)[C@H](O)[C@@H](O)[C@@H]2O)[C@H](O)[C@H](O)[C@H]1O` [eriocitrin], for which the IC50 (as a rule, the concentration needed to halve the response being measured) is 10.36 ± 0.09 µM.
For the compound `Oc1ccc(/C=C/c2cc(O)cc(O)c2)cc1` [resveratrol], the IC50 is 0.0006 ± 0.0004 µM.

In a further assay the target is T1, purified human recombinant DPP-IV enzyme (Homo sapiens, UniProt P27487).
T1 construct: purchased Cayman Chemicals
T1 sequence (P27487 whole entry): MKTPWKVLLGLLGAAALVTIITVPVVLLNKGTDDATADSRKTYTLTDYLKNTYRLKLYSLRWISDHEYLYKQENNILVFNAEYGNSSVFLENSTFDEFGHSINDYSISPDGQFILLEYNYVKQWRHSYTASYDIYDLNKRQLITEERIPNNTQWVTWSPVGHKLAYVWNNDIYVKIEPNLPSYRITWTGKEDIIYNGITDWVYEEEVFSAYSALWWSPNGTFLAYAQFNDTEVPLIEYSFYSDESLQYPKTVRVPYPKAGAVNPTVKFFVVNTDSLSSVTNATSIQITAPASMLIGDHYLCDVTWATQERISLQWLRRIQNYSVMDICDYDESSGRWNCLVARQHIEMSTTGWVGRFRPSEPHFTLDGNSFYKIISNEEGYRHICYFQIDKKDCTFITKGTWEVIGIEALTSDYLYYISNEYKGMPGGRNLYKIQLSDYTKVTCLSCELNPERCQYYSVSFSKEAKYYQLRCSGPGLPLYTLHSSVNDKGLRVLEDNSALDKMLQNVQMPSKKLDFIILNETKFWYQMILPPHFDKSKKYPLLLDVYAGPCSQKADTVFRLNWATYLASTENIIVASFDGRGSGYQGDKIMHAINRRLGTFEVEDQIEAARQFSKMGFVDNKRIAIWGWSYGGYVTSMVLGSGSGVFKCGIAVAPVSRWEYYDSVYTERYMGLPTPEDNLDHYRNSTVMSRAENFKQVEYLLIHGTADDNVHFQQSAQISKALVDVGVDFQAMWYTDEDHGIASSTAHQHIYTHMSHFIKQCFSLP
The experiment in a line: In vitro DPP-IV activity assay (Gly-Pro-AMC fluorescence). The note with it: tested 1–1000 µM. The class given is biochemical. As for the experimental part:
The DPP-IV enzyme was provided by Cayman Chemicals (Ann Arbor, MI, USA), while the DPP-IV substrate (Gly-Pro-amido-4-methylcoumarin hydrobromide (Gly-Pro-AMC)) was from AnaSpec Inc. (Freemont, CA, USA). The experiments were carried out in triplicate in a half-volume 96-well solid plate (white) following conditions previously optimized. More details are available in the Supplementary Material.
To evaluate the DPP-IV inhibitory activity of both BUO and OMN, in vitro experiments were performed by using the purified human recombinant DPP-IV enzyme and H-Gly-Pro-AMC as a substrate. The reaction was monitored by measuring the fluorescence signals at 465 nm after excitation at 350 nm, deriving from the release of a free AMC group after the cleavage of H-Gly-Pro-AMC catalyzed by DPP-IV. […]
Tris-HCl, ethylendiaminetetraacetic acid (EDTA) and NaCl were from Sigma-Aldrich (St. Louis, MO, USA) The DPP-IV assay kit was from (Cayman Chemicals (Michigan, USA), while Gly- Pro-amido-4-methylcoumarin hydrobromide (Gly- Pro-AMC) was from AnaSpec (Freemont, CA, USA). […]
MA, USA). Tyrosol (≥98%), hydroxytyrosol (≥98%), and oleocanthal (≥95%) were from Merck Life Science S.r.l. (Milano, Italy); oleuropein (≥98%) was from Extrasynthese (Genay, France), whereas oleacin was from Phytolab
(Vestenbergsgreuth, Germany).
2.3. In Vitro DPP-IV Activity Assay
The DPP-IV enzyme was provided by Cayman Chemicals (Michigan, USA), while the DPP-IV substrate (H-Gly-Pro-AMC) was from AnaSpec Inc.
(Freemont, CA, USA). The experiments were carried out in triplicate in a half volume 96-well solid plate (white). […]
Subsequently, the samples were mixed and 50 μL of each reaction was transferred in each plate well. […] Fluorescence signals deriving from the release of free AMC were measured using a Synergy H1 fluorescence plate reader from BioTek (excitation/emission wavelength
Consider `OCCc1ccc(O)c(O)c1` [hydroxytyrosol], for which the IC50 was 742 ± 35.7 µM.
Still for that read-out and setting: the value for `C/C=C1/[C@H](O[C@@H]2O[C@H](CO)[C@@H](O)[C@H](O)[C@H]2O)OC=C(C(=O)OC)[C@H]1CC(=O)OCCc1ccc(O)c(O)c1` [oleuropein] was 472 ± 21.7 µM; that for `OCCc1ccc(O)cc1` [tyrosol] was 1110 ± 55.6 µM.

Values taken from PMC8301156, “Phenolic Extracts from Extra Virgin Olive Oils Inhibit Dipeptidyl Peptidase IV Activity: In Vitro, Cellular, and In Silico Molecular Modeling Investigations” (Antioxidants, 2021).
